Where two headings read alike, the source gives them in different places.
Tests used:
[1] = rat, in vivo, sc, 10 nmol/kg
[2] = tested on: STZ-induced type I diabetes mellitus (T1DM) C57BL/6 mice; test: Hypoglycemic effect, repeated administration (three times) to STZ-induced T1DM C57BL/6 mice (Example 6); assay type: in vivo; design: key to random blood glucose: blood glucose in mmol/L; settings: for random blood glucose: Mean ± SEM, n = 7
Protocol: SPF grade C57BL/6 mice were reared in a suitable rearing box in a barrier environment, with a rearing temperature of 20-26° C., a humidity of 40-70%, a time between day and night of 12 h/12 h, and the mice had free access to standard food and autoclaved sterilization water. After the 3-day quarantine period and the 2-day acclimation period, the mice were fasted for 12 h, and the mice were injected intraperitoneally with streptozotocin solution (STZ, 13 mg/mL, in citrate buffer) at 130 mg/kg. 3 Days and 7 days after administration of streptozotocin, random blood glucose and fasting blood glucose were detected, and the random blood glucose value above 25 mmol/L and fasting blood glucose value above 11.1 mmol/L were selected as T1DM model mice for follow-up experiments. On the day before administration, random blood glucose was monitored and mice were weighed. Mice were divided into 6 groups according to random blood glucose and body weight.
Subcutaneous administration (S.C.) was used to administer the corresponding vehicle or drug, once every 4-5 days, for a total of 3 administrations. During the experiment, the animals were allowed to eat and drink water freely. The random blood glucose before the first administration, and 0.25, 0.5, 1, 2, 4, 6, 8, 10, 24, 48, 72, and 96 h after administration were assessed, as well as the random blood glucose before the second and third administration, and 0.5, 1, 2, 6, 24, 48, 72, 96 and 120 h after administration.
(§1) All raw data were entered into Excel files and expressed as Mean±SEM. Statistical analysis of data was performed using Graphpad Prism 7.0 software, one-way or two-way ANOVA comparison method, and P<0.05 was used as the criterion for significant differences.

insulin receptor B = molecular target: T1, insulin receptor B (Homo sapiens, UniProt P06213); test: Insulin receptor B autophosphorylation in transfected cells (Cisbio Phospho-IR beta Tyr1150/1151 kit); assay type: cell-based; settings: for Relative HI activity: relative to human insulin; for Relative 0% HSA activity: 1.5% HSA relative to 0% HSA
T1 construct: expressed in transfected cells
Protocol: The phosphorylation level of insulin receptor B was detected by Cisbio's Phospho-IR beta (Tyr1150/1151) kit method to evaluate the biological activity of insulin. The cells were seeded into a 96-well plate overnight, and after the serum in the medium was removed, 40 μl of serum-free medium was added to culture for about 4 h. Then a dilution series of insulin derivatives were prepared with blank solution (0.6% casein, 0.06 mg/mL EDTA, 1×DPBS) and incubated with cells in the 96-well plate for 5 min in a CO2 incubator (37° C., 5% CO2). The liquid in the 96-well plate was poured off, 100 µL of a mixture of lysis buffer (2% Triton X-100, 150 mM NaCl, 50 mM HEPES, pH=7) and inhibitor (Blocking Reagent in the kit) was added to lyse the cells, then the plate was shaken at 350 rpm for 30 min. Relative activity (in percent (%)) was assessed by measuring insulin receptor phosphorylation levels in the supernatant after cell lysis and fitting a curve to the data using nonlinear regression in Graphpad Prism 5 software. Related assays were also used, in which the blank solution also contained 1.5% HSA to simulate physiological conditions. Changes in the phosphorylation levels of the insulin-activated insulin receptors of the invention were detected as an indirect reflection of the albumin binding activity.

normal C57BL/6 mice = test: Hypoglycemic effect, single subcutaneous administration to normal C57BL/6 mice; assay type: in vivo; design: blood glucose: unit not given here; settings: for blood glucose: Mean ± SEM, n = 6; for blood glucose compared with the control group: 1 h after single S.C. administration
Protocol: SPF grade C57BL/6 mice were reared in a suitable rearing box in a barrier environment, with a rearing temperature of 20-26° C., a humidity of 40-70%, a time between day and night of 12 h/12 h, and the mice had free access to standard food and autoclaved sterilization water. After a 3-day quarantine period and a 2-day acclimation period, random blood glucose was measured and mice were weighed. Mice were divided into 6 groups according to random blood glucose and body weight.
Single subcutaneous administration (S.C.) was used to administer the corresponding vehicle or drug. The control group was administered the vehicle PBS without fasting during the whole process, and the animals were allowed to eat and drink freely. Random blood glucose values of C57 mice were measured before administration and at 0.25, 0.5, 1, 2, 4, 6, 8, 10, 24, 48, 54, 72 and 96 hours after administration.
as §1

[3] = dog, in vivo, iv, 10 nmol/kg
Protocol: Two beagle dogs, one in each group, a double-cycle crossover design was used, with a washout period of 1 week, and a single dose of 10 nmol/kg of Icodec or Insulin-a10 was administered to the lateral small saphenous vein of the hind limb in each cycle, the blood was collected and plasma was centrifuged at 0.083, 0.25, 0.5, 1, 2, 6, 8, 24, 30, 48, 72 and 96 h after administration, the concentration of Icodec or Insulin-a10 in the plasma was detected.

[4] = 500 nmol/Kg S.C. three times, Day 0 (1st)
[5] = 500 nmol/Kg S.C. three times, Day 1
[6] = 500 nmol/Kg S.C. three times, Day 4 (2nd)
[7] = 500 nmol/Kg S.C. three times, Day 5
[8] = 500 nmol/Kg S.C. three times, Day 9 (3rd)
[9] = 500 nmol/Kg S.C. three times, Day 10
[10] = 500 nmol/Kg S.C. three times, Day 14
[11] = single S.C., Degludec 200 nmol/Kg, others 1400 nmol/Kg

T1 sequence (P06213 28-758 limits assumed): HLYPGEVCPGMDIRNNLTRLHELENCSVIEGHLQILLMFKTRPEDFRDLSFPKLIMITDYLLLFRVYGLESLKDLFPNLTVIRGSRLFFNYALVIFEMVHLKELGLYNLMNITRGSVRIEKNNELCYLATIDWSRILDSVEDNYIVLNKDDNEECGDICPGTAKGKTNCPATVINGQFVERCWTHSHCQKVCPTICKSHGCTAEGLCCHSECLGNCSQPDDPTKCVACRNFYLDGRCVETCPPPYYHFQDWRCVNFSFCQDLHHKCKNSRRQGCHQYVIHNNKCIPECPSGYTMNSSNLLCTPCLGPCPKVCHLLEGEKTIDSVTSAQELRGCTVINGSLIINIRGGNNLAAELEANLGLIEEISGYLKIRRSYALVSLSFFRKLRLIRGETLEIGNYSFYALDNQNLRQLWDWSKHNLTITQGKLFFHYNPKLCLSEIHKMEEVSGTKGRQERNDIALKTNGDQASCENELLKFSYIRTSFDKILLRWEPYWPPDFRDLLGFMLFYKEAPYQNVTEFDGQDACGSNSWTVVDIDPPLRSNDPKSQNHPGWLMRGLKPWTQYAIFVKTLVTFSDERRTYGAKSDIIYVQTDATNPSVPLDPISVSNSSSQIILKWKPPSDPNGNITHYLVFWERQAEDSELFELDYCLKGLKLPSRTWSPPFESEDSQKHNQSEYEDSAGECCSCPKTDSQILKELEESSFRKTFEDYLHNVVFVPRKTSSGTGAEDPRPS
T1 sequence (P06213 763-1382 partner limits assumed): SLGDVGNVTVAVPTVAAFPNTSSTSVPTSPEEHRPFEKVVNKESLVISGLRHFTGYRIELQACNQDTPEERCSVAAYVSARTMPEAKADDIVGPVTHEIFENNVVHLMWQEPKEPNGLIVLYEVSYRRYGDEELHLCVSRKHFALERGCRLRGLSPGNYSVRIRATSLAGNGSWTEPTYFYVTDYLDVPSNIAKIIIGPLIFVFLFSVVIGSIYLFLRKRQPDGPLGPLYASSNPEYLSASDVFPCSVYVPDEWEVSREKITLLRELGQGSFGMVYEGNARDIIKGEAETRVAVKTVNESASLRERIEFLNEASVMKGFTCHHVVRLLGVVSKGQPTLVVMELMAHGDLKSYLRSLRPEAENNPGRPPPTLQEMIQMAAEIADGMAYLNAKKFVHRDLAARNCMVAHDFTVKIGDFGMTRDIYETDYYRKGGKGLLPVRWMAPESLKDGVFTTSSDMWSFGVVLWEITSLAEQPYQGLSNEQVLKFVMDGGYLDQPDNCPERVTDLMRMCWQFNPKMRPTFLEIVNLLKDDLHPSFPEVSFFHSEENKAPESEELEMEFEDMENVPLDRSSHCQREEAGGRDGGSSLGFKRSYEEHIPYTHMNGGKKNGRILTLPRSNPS

Substance	AUClast [1] [ng·h/mL]	MRTINF_obs [1] [h]	T1/2 [1] [h]	random blood glucose [2, 4]	random blood glucose [2, 5]	random blood glucose [2, 6]	random blood glucose [2, 7]	random blood glucose [2, 8]	random blood glucose [2, 9]	random blood glucose [2, 10]	EC50 (insulin receptor B; 0% HSA) [nM]	Relative HI activity (insulin receptor B; 0% HSA) [%]	EC50 (insulin receptor B; 1.5% HSA) [nM]	Relative 0% HSA activity (insulin receptor B) [%]	Relative HI activity (insulin receptor B; 1.5% HSA) [%]	blood glucose compared with the control group (normal C57BL/6 mice)	effective blood glucose control time (normal C57BL/6 mice; [11])	time after administration at which blood glucose reached the lowest level (normal C57BL/6 mice; [11]) [h]	AUClast [3] [ng·h/mL]	T1/2 [3] [h]	also measured
A14E, B16H, B25H, B29K(N(ε)-COOH(CH2)18CO-L-Lys-CO(CH2)2CO—(OEG)2), desB30 human insulin analog [Insulin-a10]	9350	29.2	17.2	32.0 ± 1.7	19.7 ± 6.6	27.6 ± 4.4	15.2 ± 8.9	26.6 ± 5.7	11.7 ± 9.4	26.1 ± 6.2	85.5	1.44	1310	6.52	0.20	decreased significantly	more than 96 h	72	28300 ± 3500	46 ± 10.8	effective glucose control time ([2]; 500 nmol/Kg S.C.): 120 h; time after administration at which blood glucose returned to normal level ([2]; 500 nmol/Kg S.C., after the first administration): 96 h; time after administration at which blood glucose returned to normal level ([2]; 500 nmol/Kg S.C., after the second and third administrations): 120 h; time after each administration at which blood glucose reached the lowest level ([2]; Icodec 250, 500 and 1000 nmol/kg, Insulin-a3 and Insulin-a10 500 nmol/Kg): 24 h; glucose control effect compared with the Icodec-1000 nmol/kg group ([2]; test drug 500 nmol/Kg S.C.): equivalent; blood glucose (normal C57BL/6 mice; 0 h (before administration), single S.C., Degludec 200 nmol/Kg, others 1400 nmol/Kg): 9.1 ± 1.5; blood glucose (normal C57BL/6 mice; 0.25 h after single S.C., Degludec 200 nmol/Kg, others 1400 nmol/Kg): 7.9 ± 1.5; blood glucose (normal C57BL/6 mice; 1 h after single S.C., Degludec 200 nmol/Kg, others 1400 nmol/Kg): 4.4 ± 0.6; blood glucose (normal C57BL/6 mice; 2 h after single S.C., Degludec 200 nmol/Kg, others 1400 nmol/Kg): 4.4 ± 1.3; blood glucose (normal C57BL/6 mice; 4 h after single S.C., Degludec 200 nmol/Kg, others 1400 nmol/Kg): 3.7 ± 1.0; blood glucose (normal C57BL/6 mice; 6 h after single S.C., Degludec 200 nmol/Kg, others 1400 nmol/Kg): 3.5 ± 1.1; blood glucose (normal C57BL/6 mice; 8 h after single S.C., Degludec 200 nmol/Kg, others 1400 nmol/Kg): 3.1 ± 1.0; blood glucose (normal C57BL/6 mice; 10 h after single S.C., Degludec 200 nmol/Kg, others 1400 nmol/Kg): 2.8 ± 0.7; blood glucose (normal C57BL/6 mice; 24 h after single S.C., Degludec 200 nmol/Kg, others 1400 nmol/Kg): 2.1 ± 0.7; blood glucose (normal C57BL/6 mice; 48 h after single S.C., Degludec 200 nmol/Kg, others 1400 nmol/Kg): 1.7 ± 0.6; blood glucose (normal C57BL/6 mice; 72 h after single S.C., Degludec 200 nmol/Kg, others 1400 nmol/Kg): 1.8 ± 0.1; blood glucose (normal C57BL/6 mice; 96 h after single S.C., Degludec 200 nmol/Kg, others 1400 nmol/Kg): 4.0 ± 4.0; effect on blood glucose control compared with Icodec (normal C57BL/6 mice; single S.C. 1400 nmol/Kg): consistent with the trend of Icodec and can be maintained for a longer time; time after administration at which blood glucose returned to normal (normal C57BL/6 mice; [11]): > 96 h
A14E, B16H, B25H, B29K (N^ε-eicosandioyl-gGlu-2xOEG), DesB30 human insulin analog [Icodec, reference compound]	6560	30.5	16.7	32.5 ± 1.6	20.3 ± 6.3	30.6 ± 2.6	19.5 ± 5.8	27.0 ± 7.1	15.9 ± 6.0	33.0 ± 0.9	77.2	1.60	1480	5.23	0.17	decreased significantly	96 h	48	35700 ± 120	35.7 ± 6.7	random blood glucose ([2]; 250 nmol/Kg S.C. three times, Day 0 (1st)): 32.5 ± 2.2; random blood glucose ([2]; 250 nmol/Kg S.C. three times, Day 1): 25.7 ± 4.2; random blood glucose ([2]; 250 nmol/Kg S.C. three times, Day 4 (2nd)): 31.3 ± 2.6; random blood glucose ([2]; 250 nmol/Kg S.C. three times, Day 5): 25.1 ± 3.2; random blood glucose ([2]; 250 nmol/Kg S.C. three times, Day 9 (3rd)): 31.8 ± 2.2; random blood glucose ([2]; 250 nmol/Kg S.C. three times, Day 10): 17.2 ± 6.8; random blood glucose ([2]; 250 nmol/Kg S.C. three times, Day 14): 30.6 ± 4.6; random blood glucose ([2]; 1000 nmol/Kg S.C. three times, Day 0 (1st)): 30.8 ± 2.9; random blood glucose ([2]; 1000 nmol/Kg S.C. three times, Day 1): 20.4 ± 4.6; random blood glucose ([2]; 1000 nmol/Kg S.C. three times, Day 4 (2nd)): 31.6 ± 2.1; random blood glucose ([2]; 1000 nmol/Kg S.C. three times, Day 5): 12.8 ± 5.4; random blood glucose ([2]; 1000 nmol/Kg S.C. three times, Day 9 (3rd)): 29.7 ± 3.7; random blood glucose ([2]; 1000 nmol/Kg S.C. three times, Day 10): 10.1 ± 6.4; random blood glucose ([2]; 1000 nmol/Kg S.C. three times, Day 14): 27.7 ± 4.6

From patent US20240374692A1, “A NOVEL ACYLATED INSULIN ANALOG” (SUNSHINE LAKE PHARMA CO., LTD., priority 2021, published 2024)
